The source made the active and inactive calls. No cut-off for these calls is given here.
How the values were obtained:
Format in all cases: functional, cell-based
HT-1080 [1] = assay: Inhibition of erastin-induced ferroptosis in human HT-1080 cells assessed as cell viability incubated for 48 hrs by MTT assay; details: HT-1080, 48 h
HT-29 = assay: Protection against TNFalpha/Smac-mimetic/Z-VAD-FMK-induced necroptosis in human HT-29 cells assessed as cell viability at 10 uM
THP-1 = assay: Protection against nigericin-induced pyroptosis in human THP-1 cells assessed as cell viability at 10 uM
HT-1080 [2] = assay: Inhibition of rotenone-induced oxidative cell death in human HT-1080 cells at 10 uM incubated for 24 hrs
HT-1080 [3] = assay: Inhibition of H2O2-induced oxidative cell death in human HT-1080 cells at 10 uM incubated for 24 hrs

EC50 (HT-1080 [1])	Compound	other results
> 10000 nM	CCCCC(CC)CN1c2ccccc2Sc2ccccc21 (configuration not stated)	–
12 nM	CC(C)c1cccc(C(C)c2ccc3c(c2)Nc2ccccc2S3)c1 (configuration not stated)	–
15 nM	CC(c1cccc(C#N)c1)c1ccc2c(c1)Nc1ccccc1S2 (configuration not stated)	–
35 nM	CC(c1ccc2c(c1)Nc1ccccc1S2)c1ccc(F)c(OCc2ccccc2)c1 (configuration not stated)	–
16 nM	CC(c1ccc(Cl)cc1)c1ccc2c(c1)Nc1ccccc1S2 (configuration not stated)	–
> 10000 nM	CC(=O)c1ccccc1NC(=O)COC(=O)CCN1c2ccccc2Sc2ccccc21	–
4300 nM	CC(=O)c1cccc(NC(=O)CCN2c3ccccc3Sc3ccccc32)c1	–
17 nM	CC(c1cc(Cl)cc(Cl)c1)c1ccc2c(c1)Nc1ccccc1S2 (configuration not stated)	–
2760 nM	CC1CCN(CC(=O)N2c3ccccc3Sc3ccccc32)CC1	–
6 nM	CC(c1ccc(F)cc1)c1ccc2c(c1)Nc1ccccc1S2 (configuration not stated)	–
13 nM	COc1cc(OC)cc(C(C)c2ccc3c(c2)Nc2ccccc2S3)c1 (configuration not stated)	–
63 nM	OCc1ccc2c(c1)Nc1ccccc1S2	–
4 nM	CC(c1ccccc1)c1ccc2c(c1)Nc1ccccc1S2 (configuration not stated)	–
71 nM	Cc1cc(C(C)c2ccc3c(c2)Nc2ccccc2S3)ccc1OCc1ccccc1 (configuration not stated)	–
1150 nM	CC(=O)N1c2ccccc2Sc2ccccc21	–
6 nM	CC(C)c1ccc(C(C)c2ccc3c(c2)Nc2ccccc2S3)cc1 (configuration not stated)	–
24 nM	Cc1cc(Cl)cc(C(C)c2ccc3c(c2)Nc2ccccc2S3)c1 (configuration not stated)	–
18 nM	CCc1cccc(C(C)c2ccc3c(c2)Nc2ccccc2S3)c1 (configuration not stated)	–
21 nM	COC(=O)c1ccc(C(C)c2ccc3c(c2)Nc2ccccc2S3)cc1Cl (configuration not stated)	–
9 nM	CC(C)Cc1ccc(C(C)c2ccc3c(c2)Nc2ccccc2S3)cc1 (configuration not stated)	–
> 10000 nM	CCCN1c2ccccc2Sc2ccccc21	–
13 nM	CC(c1ccc(N2CCOCC2)cc1)c1ccc2c(c1)Nc1ccccc1S2 (configuration not stated)	–
7 nM	COc1ccc(C(C)c2ccc3c(c2)Nc2ccccc2S3)cc1OC (configuration not stated)	–
30 nM	CCc1ccc2c(c1)Nc1ccccc1S2	–
34 nM	CC(c1ccc2c(c1)Nc1ccccc1S2)S(=O)(=O)N1CCN(C)CC1 (configuration not stated)	–

EC50 (HT-1080 [1])	Compound	other results
64 nM	CSc1ccc2c(c1)Nc1ccccc1S2	–
17 nM	CC(=NNC(=O)c1ccco1)c1ccc2c(c1)Nc1ccccc1S2	–
21 nM	Cc1cc(C)cc(C(C)c2ccc3c(c2)Nc2ccccc2S3)c1 (configuration not stated)	–
5 nM	CC(c1cccc(Cl)c1)c1ccc2c(c1)Nc1ccccc1S2 (configuration not stated)	–
14 nM	CC(c1ccc(OCc2ccccc2)cc1)c1ccc2c(c1)Nc1ccccc1S2 (configuration not stated)	–
439 nM	CC(OC(=O)CCCN1C(=O)c2ccccc2C1=O)C(=O)N1c2ccccc2Sc2ccccc21 (configuration not stated)	–
47 nM	FC(F)(F)c1ccc2c(c1)Nc1ccccc1S2	–
25 nM	CC(C)N1CCN(S(=O)(=O)C(C)c2ccc3c(c2)Nc2ccccc2S3)CC1 (configuration not stated)	–
19 nM	COc1ccc(C(C)c2ccc3c(c2)Nc2ccccc2S3)cc1C (configuration not stated)	–
17 nM	CCOc1ccc(C(C)c2ccc3c(c2)Nc2ccccc2S3)cc1 (configuration not stated)	–
9 nM	CC(c1cccc(N2CCN(C)CC2)c1)c1ccc2c(c1)Nc1ccccc1S2 (configuration not stated)	–
20 nM	CCc1ccc(C(C)c2ccc3c(c2)Nc2ccccc2S3)cc1 (configuration not stated)	–
209 nM	N#Cc1ccc2c(c1)Nc1ccccc1S2	–
> 10000 nM	CN1c2ccccc2Sc2ccccc21	–
52 nM	CC(c1cccc(NC(=O)OC(C)(C)C)c1)c1ccc2c(c1)Nc1ccccc1S2 (configuration not stated)	–
80 nM	CC(c1ccc2c(c1)Nc1ccccc1S2)S(=O)(=O)N1CCN(c2ccc(F)cc2)CC1 (configuration not stated)	–
4470 nM	O=C(c1ccncc1)N1c2ccccc2Sc2ccccc21	–
4420 nM	CCN(CC)CC(O)CN1c2ccccc2Sc2ccccc21 (configuration not stated)	–
5 nM	CC(c1cccc(O)c1)c1ccc2c(c1)Nc1ccccc1S2 (configuration not stated)	–
6 nM	CC(c1ccc(C#N)cc1)c1ccc2c(c1)Nc1ccccc1S2 (configuration not stated)	–
28 nM	C/C(=N\NS(=O)(=O)c1ccc(C)cc1)c1ccc2c(c1)Nc1ccccc1S2	–
5240 nM	Cc1ccc(C)c(NC(=O)CN(C)C(=O)CCN2c3ccccc3Sc3ccccc32)c1	–
17 nM	CC(c1ccc(C(F)(F)F)c(Cl)c1)c1ccc2c(c1)Nc1ccccc1S2 (configuration not stated)	–
> 10000 nM	CC(OC(=O)CCN1c2ccccc2Sc2ccccc21)c1ccc(F)cc1 (configuration not stated)	–
35 nM	CC(c1ccc2c(c1)Nc1ccccc1S2)S(=O)(=O)N1CCN(S(C)(=O)=O)CC1 (configuration not stated)	–

EC50 (HT-1080 [1])	Compound	other results
22 nM	COc1cc(C(C)c2ccc3c(c2)Nc2ccccc2S3)ccc1C (configuration not stated)	–
67 nM	CC(c1ccc2c(c1)Nc1ccccc1S2)S(=O)(=O)N1CCOCC1 (configuration not stated)	–
264 nM	CC(CN1c2ccccc2Sc2ccccc21)N(C)C (configuration not stated) [PROMETHAZINE]	–
64 nM	CCCCc1ccc(C(C)c2ccc3c(c2)Nc2ccccc2S3)cc1 (configuration not stated)	–
18 nM	CCOc1ccccc1C(=O)N/N=C(\C)c1ccc2c(c1)Nc1ccccc1S2	–
14 nM	CC(c1cccc(N2CCOCC2)c1)c1ccc2c(c1)Nc1ccccc1S2 (configuration not stated)	–
17 nM	CC(c1cccc(C(=O)OC(C)(C)C)c1)c1ccc2c(c1)Nc1ccccc1S2 (configuration not stated)	–
142 nM	O=Cc1ccc2c(c1)Nc1ccccc1S2	–
25 nM	COc1cc(C(C)c2ccc3c(c2)Nc2ccccc2S3)ccc1F (configuration not stated)	–
30 nM	CCOC(=O)c1cc(F)cc(C(C)c2ccc3c(c2)Nc2ccccc2S3)c1 (configuration not stated)	–
15 nM	CC(C)Oc1cccc(C(C)c2ccc3c(c2)Nc2ccccc2S3)c1 (configuration not stated)	–
80 nM	CC(c1ccc2c(c1)Nc1ccccc1S2)S(=O)(=O)N1CCN(c2ccc(F)cc2F)CC1 (configuration not stated)	–
1750 nM	COc1ccc2c(c1)Nc1ccccc1S2	–
17 nM	c1ccc(Cc2ccc3c(c2)Nc2ccccc2S3)cc1	–
32 nM	CCN1CCN(S(=O)(=O)C(C)c2ccc3c(c2)Nc2ccccc2S3)CC1 (configuration not stated)	–
–	CN1C(=O)C(Cc2c[nH]c3ccccc23)NC1=S (configuration not stated)	Activity (HT-29): Active
145 nM	COc1ccc(OCC(=O)N2c3ccccc3Sc3ccccc32)cc1	–
62 nM	CCCOc1ccc(C(C)c2ccc3c(c2)Nc2ccccc2S3)cc1 (configuration not stated)	–
5 nM	C/C(=N\NC(=O)c1ccccc1C)c1ccc2c(c1)Nc1ccccc1S2	–
> 10000 nM	COc1ccccc1C(=O)N1c2ccccc2Sc2ccccc21	–
25 nM	CC(c1cccc(OCc2ccccc2)c1)c1ccc2c(c1)Nc1ccccc1S2 (configuration not stated)	–
14 nM	CCOc1cccc(C(C)c2ccc3c(c2)Nc2ccccc2S3)c1 (configuration not stated)	–
> 10000 nM	Cc1cnc(SCC(=O)N2c3ccccc3Sc3ccccc32)nc1	–
60 nM	CC(c1cc(F)cc(OCc2ccccc2)c1)c1ccc2c(c1)Nc1ccccc1S2 (configuration not stated)	–
195 nM	CS(=O)(=O)c1ccc2c(c1)Nc1ccccc1S2	–

EC50 (HT-1080 [1])	Compound	other results
19 nM	CC(c1ccc(Cl)c(F)c1)c1ccc2c(c1)Nc1ccccc1S2 (configuration not stated)	–
38 nM	CC(=O)c1ccc2c(c1)Nc1ccccc1S2	–
39 nM	CC(c1ccc(NC(=O)OC(C)(C)C)cc1)c1ccc2c(c1)Nc1ccccc1S2 (configuration not stated)	–
–	CC(C)(O)c1coc(S(=O)(=O)NC(=O)Nc2c3c(cc4c2CCC4)CCC3)c1	Activity (THP-1): Active
6 nM	CC(c1ccc(C(F)(F)F)cc1)c1ccc2c(c1)Nc1ccccc1S2 (configuration not stated)	–
5 nM	Cc1cccc(C(C)c2ccc3c(c2)Nc2ccccc2S3)c1 (configuration not stated)	–
17 nM	CC(C)Oc1ccc(C(C)c2ccc3c(c2)Nc2ccccc2S3)cc1 (configuration not stated)	–
73 nM	CC(c1ccc(C(C)(C)C)cc1)c1ccc2c(c1)Nc1ccccc1S2 (configuration not stated)	–
65 nM	C/C(=N\NC(=O)c1ccccn1)c1ccc2c(c1)Nc1ccccc1S2	–
6 nM	CC(c1cccc(F)c1)c1ccc2c(c1)Nc1ccccc1S2 (configuration not stated)	–
4040 nM	CC(NC(=O)CCN1c2ccccc2Sc2ccccc21)C1CC1 (configuration not stated)	–
> 10000 nM	O=C(CCN1c2ccccc2Sc2ccccc21)N1CCN(CCO)CC1	–
78 nM	CC(c1ccc2c(c1)Nc1ccccc1S2)S(=O)(=O)N1CCSCC1 (configuration not stated)	–
71 nM	C/C(=N\NC(=O)c1cccnc1)c1ccc2c(c1)Nc1ccccc1S2	–
22 nM	COc1cc(C(C)c2ccc3c(c2)Nc2ccccc2S3)ccc1Cl (configuration not stated)	–
88 nM	CCOC(=O)c1ccc(NC2CCCCC2)c(N)c1	Activity (HT-29): inactive; inhibition (HT-1080 [2]): inactive; Activity (HT-1080 [3]): inactive
1130 nM	O=C(CN1CCCC1)N1c2ccccc2Sc2ccccc21	–
16 nM	CC(c1ccc(Cl)c(Cl)c1)c1ccc2c(c1)Nc1ccccc1S2 (configuration not stated)	–
> 10000 nM	COCCNC(=O)N1c2ccccc2Sc2ccccc21	–
13 nM	CC(OC(=O)c1ccccc1)c1ccc2c(c1)Nc1ccccc1S2 (configuration not stated)	–
5 nM	CC(c1ccc(F)c(Cl)c1)c1ccc2c(c1)Nc1ccccc1S2 (configuration not stated)	–
57 nM	COc1cccc(N2CCN(S(=O)(=O)C(C)c3ccc4c(c3)Nc3ccccc3S4)CC2)c1 (configuration not stated)	–
> 10000 nM	Cc1ccc(SCC(=O)N2c3ccccc3Sc3ccccc32)cc1	–

Compound	EC50 (HT-1080 [1])	other results
c1ccc2c(c1)Nc1ccccc1S2 [PHENOTHIAZINE]	49 nM	–

From ChEMBL document CHEMBL4732064, “Structure-activity relationship studies of phenothiazine derivatives as a new class of ferroptosis inhibitors together with the therapeutic effect in an ischemic stroke model” (Eur J Med Chem, 2021)
